This passage reports IC50 results from patent publication US12509454B2, “Thiadiazolyl derivatives” (IDEAYA Biosciences, Inc., priority 2019, dated 2025).

In this assay the target is Pol theta (1-899) (Homo sapiens (Human), UniProt O75417). Description: Pol theta ATPase activity, NADH oxidation-coupled enzymatic assay. It counts as biochemical. The following applies: Pol theta (1-899) 10 nM, ATP, dT50 ssDNA, absorbance 340 nm, 10-point dilution series; read-out: ATPase NADH coupling:Standard Screening:hPolQ IC50. The procedure, abridged:
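Pol theta (1-899), 10 nM, preincubated 15 min at RT with 10-point compound series in Tris pH 7.80/KCl/MgCl2 buffer, then given 100 μM ATP plus 300 nM dT50 ssDNA with PK/LDH-coupled NADH oxidation. A340 followed for 30 min; rate slopes fitted with a four-parameter model for IC50.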

Chain of Pol theta (1-899) (O75417 1-899): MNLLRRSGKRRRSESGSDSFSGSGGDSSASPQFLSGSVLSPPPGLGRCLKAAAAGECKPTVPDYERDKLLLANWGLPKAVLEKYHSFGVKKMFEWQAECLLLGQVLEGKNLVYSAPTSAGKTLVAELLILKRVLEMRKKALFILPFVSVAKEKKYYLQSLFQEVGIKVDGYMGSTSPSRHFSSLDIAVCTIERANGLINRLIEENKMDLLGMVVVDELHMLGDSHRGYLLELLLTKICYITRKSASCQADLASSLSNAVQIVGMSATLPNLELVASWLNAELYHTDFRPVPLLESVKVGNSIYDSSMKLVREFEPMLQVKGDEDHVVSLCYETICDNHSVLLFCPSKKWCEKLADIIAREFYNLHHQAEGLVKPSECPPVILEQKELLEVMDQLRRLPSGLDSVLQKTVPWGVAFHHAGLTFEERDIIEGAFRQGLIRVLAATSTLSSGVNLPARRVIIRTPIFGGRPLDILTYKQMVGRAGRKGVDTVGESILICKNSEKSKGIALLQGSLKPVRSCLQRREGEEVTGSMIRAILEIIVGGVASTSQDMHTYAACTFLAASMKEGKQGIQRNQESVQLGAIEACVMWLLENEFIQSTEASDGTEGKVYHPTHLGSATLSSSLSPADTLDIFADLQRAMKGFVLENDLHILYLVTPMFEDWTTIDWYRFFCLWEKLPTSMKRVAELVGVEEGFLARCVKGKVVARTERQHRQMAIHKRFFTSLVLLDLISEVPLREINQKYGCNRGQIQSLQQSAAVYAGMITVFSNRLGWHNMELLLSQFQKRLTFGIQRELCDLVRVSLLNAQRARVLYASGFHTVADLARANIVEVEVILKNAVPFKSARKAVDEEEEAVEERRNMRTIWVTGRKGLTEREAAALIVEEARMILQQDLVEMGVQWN

In the case of `O=C(Nc1nnc(OCc2ccc(Cl)cc2)s1)c1ccncc1-c1cccc2c1OC(F)(F)O2` [Example 121, N-(5-((4-chlorobenzyl)oxy)-1,3,4-thiadiazol-2-yl)-3-(2,2-difluorobenzo[d][1,3]dioxol-4-yl)isonicotinamide], the IC50 was at most 200 nM.

For the compound `Cn1cc(-c2ccncc2C(=O)Nc2nnc(OCc3ccc(Cl)cc3)s2)ccc1=O` [Example 122, N-(5-((4-chlorobenzyl)oxy)-1,3,4-thiadiazol-2-yl)-1-methyl-6-oxo-1,6-dihydro-[3,4′-bipyridine]-3′-carboxamide], the IC50 is at most 200 nM.

On to `COc1ccc(C#N)cc1-c1cnccc1C(=O)Nc1nnc(OCc2ccc(Cl)cc2)s1` [Example 123, N-(5-((4-chlorobenzyl)oxy)-1,3,4-thiadiazol-2-yl)-3-(5-cyano-2-methoxyphenyl)isonicotinamide], for which the 50% inhibitory concentration (IC50) was at most 200 nM.

Consider `COc1cccc(F)c1-c1cnccc1C(=O)Nc1nnc(OCc2ccc(Cl)cc2)s1` [Example 124, N-(5-((4-chlorobenzyl)oxy)-1,3,4-thiadiazol-2-yl)-3-(2-fluoro-6-methoxyphenyl)isonicotinamide], for which the IC50 was at most 200 nM.

With `COc1cccc(Cl)c1-c1cnccc1C(=O)Nc1nnc(OCc2ccc(Cl)cc2)s1` [Example 125, 3-(2-chloro-6-methoxyphenyl)-N-(5-((4-chlorobenzyl)oxy)-1,3,4-thiadiazol-2-yl)isonicotinamide], the IC50 was at most 200 nM.

Take `N#Cc1ccccc1-c1cnccc1C(=O)Nc1nnc(OCc2ccc(Cl)cc2)s1` [Example 126, N-(5-((4-chlorobenzyl)oxy)-1,3,4-thiadiazol-2-yl)-3-(2-cyanophenyl)isonicotinamide]: the IC50 is at most 200 nM.

`COc1cc(C#N)ccc1-c1cnccc1C(=O)Nc1nnc(OCc2ccc(Cl)cc2)s1` [Example 127, N-(5-((4-chlorobenzyl)oxy)-1,3,4-thiadiazol-2-yl)-3-(4-cyano-2-methoxyphenyl)isonicotinamide]: the IC50 is at most 200 nM.

Turning to `COc1cccc(OC)c1-c1ccncc1C(=O)Nc1nnc(OCc2ccc(Cl)cc2)s1` [Example 128, N-(5-((4-chlorobenzyl)oxy)-1,3,4-thiadiazol-2-yl)-4-(2,6-dimethoxyphenyl)nicotinamide], the IC50 is 500 to 1000 nM.

Take `COc1ncccc1-c1ccncc1C(=O)Nc1nnc(OCc2ccc(Cl)cc2)s1` [Example 129, N-(5-((4-chlorobenzyl)oxy)-1,3,4-thiadiazol-2-yl)-2-methoxy-[3,4′-bipyridine]-3′-carboxamide]: the IC50 fell in the range of 200 to 500 nM.

On to `O=C(Nc1nnc(OCc2ccc(Cl)cc2)s1)c1cnccc1-c1ccccc1OC(F)(F)F` [Example 130, N-(5-((4-chlorobenzyl)oxy)-1,3,4-thiadiazol-2-yl)-4-(2-(trifluoromethoxy)phenyl)nicotinamide], for which the IC50 was at most 200 nM.

For the compound `COc1cnccc1-c1cnccc1C(=O)Nc1nnc(OCc2ccc(Cl)cc2)s1` [Example 131, N-(5-((4-chlorobenzyl)oxy)-1,3,4-thiadiazol-2-yl)-3′-methoxy-[3,4′-bipyridine]-4-carboxamide], the IC50 was at most 200 nM.

As for `O=C(Nc1nnc(OCc2ccc(Cl)cc2)s1)c1cnccc1-c1ccccc1C(F)(F)F` [Example 132, N-(5-((4-chlorobenzyl)oxy)-1,3,4-thiadiazol-2-yl)-4-(2-(trifluoromethyl)phenyl)nicotinamide], the IC50 was at most 200 nM.

For the compound `COc1ccncc1-c1cnccc1C(=O)Nc1nnc(OCc2ccc(Cl)cc2)s1` [Example 133, N-(5-((4-chlorobenzyl)oxy)-1,3,4-thiadiazol-2-yl)-4′-methoxy-[3,3′-bipyridine]-4-carboxamide], the IC50 is 500 to 1000 nM.

For `O=C(Nc1nnc(OCc2ccc(Cl)cc2)s1)c1ccncc1-c1ccccc1OC1COC1` [Example 134, N-[5-[(4-chlorophenyl)methoxy]-1,3,4-thiadiazol-2-yl]-3-[2-(oxetan-3-yloxy)phenyl]pyridine-4-carboxamide], the IC50 was at most 200 nM.

As to `CCc1ccccc1-c1cnccc1C(=O)Nc1nnc(OCc2ccc(Cl)cc2)s1` [Example 135, N-[5-[(4-chlorophenyl)methoxy]-1,3,4-thiadiazol-2-yl]-3-(2-ethylphenyl)pyridine-4-carboxamide], the IC50 was at most 200 nM.

Turning to `O=C(Nc1nnc(OCc2ccc(Cl)cc2)s1)c1ccncc1-c1cccc2c1OCCN2` [Example 136, N-[5-[(4-chlorophenyl)methoxy]-1,3,4-thiadiazol-2-yl]-3-(3,4-dihydro-2H-1,4-benzoxazin-8-yl)pyridine-4-carboxamide], the IC50 was at most 200 nM.

Take `COc1ccccc1-c1cnc(CC#N)cc1C(=O)Nc1nnc(OCc2ccc(Cl)cc2)s1` [Example 137, N-[5-[(4-chlorophenyl)methoxy]-1,3,4-thiadiazol-2-yl]-2-(cyanomethyl)-5-(2-methoxyphenyl)pyridine-4-carboxamide]: the IC50 was at most 200 nM.

In the case of `COc1ccccc1-c1cc(C)ncc1C(=O)Nc1nnc(OCc2ccc(Cl)cc2)s1` [Example 138, N-[5-[(4-chlorophenyl)methoxy]-1,3,4-thiadiazol-2-yl]-4-(2-methoxyphenyl)-6-methylpyridine-3-carboxamide], the IC50 is at most 200 nM.

For `CN1CCOc2c(-c3cnccc3C(=O)Nc3nnc(OCc4ccc(Cl)cc4)s3)cccc21` [Example 139, N-[5-[(4-chlorophenyl)methoxy]-1,3,4-thiadiazol-2-yl]-3-(4-methyl-2,3-dihydro-1,4-benzoxazin-8-yl)pyridine-4-carboxamide], the IC50 is at most 200 nM.

As to `Cc1n[nH]c(C)c1-c1cnccc1C(=O)Nc1nnc(OCc2ccc(Cl)cc2)s1` [Example 140, N-[5-[(4-chlorophenyl)methoxy]-1,3,4-thiadiazol-2-yl]-3-(3,5-dimethyl-1H-pyrazol-4-yl)pyridine-4-carboxamide], the IC50 was at most 200 nM.

`COc1ccccc1-c1cnccc1C(=O)Nc1nnc(OCc2ccc(C3(C#N)CC3)cc2)s1` [Example 141, N-(5-[[4-(1-cyanocyclopropyl)phenyl]methoxy]-1,3,4-thiadiazol-2-yl)-3-(2-methoxyphenyl)pyridine-4-carboxamide]: the IC50 was at most 200 nM.

Regarding `O=C(Nc1nnc(OCc2ccc(Cl)cc2)s1)c1ccncc1N1CCCn2nccc21` [Example 142, N-[5-[(4-chlorophenyl)methoxy]-1,3,4-thiadiazol-2-yl]-3-[5H,6H,7H-pyrazolo[1,5-a]pyrimidin-4-yl]pyridine-4-carboxamide], the IC50 was at most 200 nM.

As for `O=C(Nc1nnc(OCc2ccc(Cl)cc2)s1)c1ccncc1-c1c(F)cccc1OC1COC1` [Example 143, N-(5-((4-chlorobenzyl)oxy)-1,3,4-thiadiazol-2-yl)-3-(2-fluoro-6-(oxetan-3-yloxy)phenyl)isonicotinamide], the IC50 was at most 200 nM.

`C[C@@H]1COC[C@@H](C)N1c1cnccc1C(=O)Nc1nnc(OCc2ccc(Cl)cc2)s1` [Example 144, N-(5-((4-chlorobenzyl)oxy)-1,3,4-thiadiazol-2-yl)-3-((3R,5R)-3,5-dimethylmorpholino)isonicotinamide]: the IC50 was at most 200 nM.

In the case of `COc1ccccc1-c1cnccc1C(=O)Nc1nnc(OCc2cccc3[nH]cnc23)s1` [Example 145, N-[5-(1H-1,3-benzodiazol-4-ylmethoxy)-1,3,4-thiadiazol-2-yl]-3-(2-methoxyphenyl)pyridine-4-carboxamide], the IC50 was at most 200 nM.

As for `COc1ccccc1-c1cnccc1C(=O)Nc1nnc(OCc2ccc(Cl)c3c2cnn3C)s1` [Example 146, N-[5-[(7-chloro-1-methylindazol-4-yl)methoxy]-1,3,4-thiadiazol-2-yl]-3-(2-methoxyphenyl)pyridine-4-carboxamide], the IC50 was at most 200 nM.

`O=C(Nc1nnc(OCc2ccc(Cl)cc2)s1)c1cc(C#CCO)ncc1-c1ccccc1OC(F)F` [Example 147, N-[5-[(4-chlorophenyl)methoxy]-1,3,4-thiadiazol-2-yl]-5-[2-(difluoromethoxy)phenyl]-2-(3-hydroxyprop-1-yn-1-yl)pyridine-4-carboxamide]: the IC50 was at most 200 nM.

`COc1ccccc1-c1cnc(F)cc1C(=O)Nc1nnc(OCc2ccc(Cl)cc2)s1` [Example 148, N-(5-((4-chlorobenzyl)oxy)-1,3,4-thiadiazol-2-yl)-2-fluoro-5-(2-methoxyphenyl)isonicotinamide]: the IC50 is at most 200 nM.

For the compound `COc1ccccc1-n1cncc1C(=O)Nc1nnc(OCc2ccc(C3CC3)cc2)s1` [Example 149, N-(5-((4-cyclopropylbenzyl)oxy)-1,3,4-thiadiazol-2-yl)-1-(2-methoxyphenyl)-1H-imidazole-5-carboxamide], the IC50 was at most 200 nM.

Regarding `O=C(Nc1nnc(OCc2ccc(Cl)cc2)s1)c1cccnc1-c1ccccc1Cl` [Example 150, N-(5-((4-chlorobenzyl)oxy)-1,3,4-thiadiazol-2-yl)-2-(2-chlorophenyl)nicotinamide], the IC50 lay in the range of 200 to 500 nM.

Regarding `COc1ccccc1-c1cnc(C#N)cc1C(=O)Nc1nnc(OCc2ccc(Cl)cc2)s1` [Example 151, N-(5-((4-chlorobenzyl)oxy)-1,3,4-thiadiazol-2-yl)-2-cyano-5-(2-methoxyphenyl)isonicotinamide], the IC50 is at most 200 nM.

On to `COc1ccccc1-c1cc(C(=O)O)ncc1C(=O)Nc1nnc(OCc2ccc(Br)cc2)s1` [Example 152, 5-([5-[(4-bromophenyl)methoxy]-1,3,4-thiadiazol-2-yl]carbamoyl)-4-(2-methoxyphenyl)pyridine-2-carboxylic acid], for which the IC50 is at most 200 nM.

As for `COc1ccccc1-c1ccncc1C(=O)Nc1nnc(OCc2ccc(Br)cc2)s1` [Example 153, N-[5-[(4-bromophenyl)methoxy]-1,3,4-thiadiazol-2-yl]-4-(2-methoxyphenyl)pyridine-3-carboxamide], the IC50 is at most 200 nM.

Take `COc1ccccc1-c1cc(C#N)ncc1C(=O)Nc1nnc(OCCC2CC2)s1` [Example 154, 6-cyano-N-(5-(2-cyclopropylethoxy)-1,3,4-thiadiazol-2-yl)-4-(2-methoxyphenyl)nicotinamide]: the IC50 is at most 200 nM.
